Measurements published in article PMC6370209, “Rapid and sensitive detection of NADPH via mBFP-mediated enhancement of its fluorescence” (PLoS ONE, 2019).

Key:
[1] = molecular target: T1, NAD(H) kinase (MfnK) (Micrococcus luteus, UniProt Q8VUL9); test: NADPH formation detected by mBFP fluorescence; type: biochemical; conditions: 50 mM Tris-HCl pH 7.5, 0.1 mM MgCl2, 0.5 mM ATP, 0.5 mM NADH
T1 construct: full-length gene from genomic DNA, C-terminal His tag (pET-22b(+)), expressed in E. coli BL21(DE3), purified
T1 sequence (Q8VUL9 1-362): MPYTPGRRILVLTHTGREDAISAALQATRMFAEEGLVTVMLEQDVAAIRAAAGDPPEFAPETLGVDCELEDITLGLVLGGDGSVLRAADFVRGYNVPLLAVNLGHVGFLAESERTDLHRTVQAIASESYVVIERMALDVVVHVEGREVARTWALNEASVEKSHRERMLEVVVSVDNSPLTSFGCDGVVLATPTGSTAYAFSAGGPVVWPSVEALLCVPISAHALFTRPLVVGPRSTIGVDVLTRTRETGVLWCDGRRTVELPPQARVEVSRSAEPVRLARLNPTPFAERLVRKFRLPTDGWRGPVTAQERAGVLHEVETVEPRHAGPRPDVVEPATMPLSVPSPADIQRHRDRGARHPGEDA

[2] = molecular target: T2, mBFP (metagenome-derived blue fluorescent protein) (uncultured bacterium, UniProt D6NKF4); test: fluorescence enhancement of NADPH upon mBFP addition (ex […] nm, em […] nm); type: binding; conditions: […] Tris-HCl pH […] °C
T2 construct: full length, 248 amino acids, N-terminal 6-His tag kept (pQE30), expressed in E. coli XL1-Blue
T2 sequence (D6NKF4 1-248): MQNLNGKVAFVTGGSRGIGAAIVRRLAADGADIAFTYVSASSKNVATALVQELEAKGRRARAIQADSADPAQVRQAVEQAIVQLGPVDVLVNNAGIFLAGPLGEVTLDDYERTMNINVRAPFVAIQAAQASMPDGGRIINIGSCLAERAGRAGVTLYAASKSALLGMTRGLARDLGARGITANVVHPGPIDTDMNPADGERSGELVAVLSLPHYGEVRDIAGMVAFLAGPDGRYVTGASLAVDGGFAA

[3] = molecular target: T2, mBFP (metagenome-derived blue fluorescent protein); test: competition with NADPH, attenuation of mBFP-NADPH fluorescence; type: binding; conditions: […] Tris-HCl pH […] °C; competitive with NADPH; excess NADP+

NC(=O)C1=CN([C@@H]2O[C@H](COP(=O)(O)OP(=O)(O)OC[C@H]3O[C@@H](n4cnc5c(N)ncnc54)[C@H](O)[C@@H]3O)[C@@H](O)[C@H]2O)C=CC1 [NADH]
NADPH formation detected by mBFP fluorescence [1]: enzymatic conversion of NADH to NADPH by MfnK as a function of the NADH amount

NC(=O)C1=CN([C@@H]2O[C@H](COP(=O)(O)OP(=O)(O)OC[C@H]3O[C@@H](n4cnc5c(N)ncnc54)[C@H](OP(=O)(O)O)[C@@H]3O)[C@@H](O)[C@H]2O)C=CC1 [NADPH]
fluorescence enhancement of NADPH upon mBFP addition (ex 350 nm, em 450 nm) [2]: An immediate enhancement of fluorescence was detected when the purified mBFP was added

NC(=O)c1ccc[n+]([C@@H]2O[C@H](COP(=O)(O)OP(=O)(O)OC[C@H]3O[C@@H](n4cnc5c(N)ncnc54)[C@H](OP(=O)(O)O)[C@@H]3O)[C@@H](O)[C@H]2O)c1 [NADP^+]
competition with NADPH, attenuation of mBFP-NADPH fluorescence [3]: excess NADP^+ resulted in competition for mBFP binding and attenuated the NADPH fluorescence enhancement
